Values quoted from earlier work, collected in patent EP0420232B1, “Water soluble derivatives of glycoside bioflavonoids, processes for their preparation and related pharmaceutical compositions” (EUROPEAN PHARMACY Srl, priority 1989, dated 1991).

Experiments:
[1] = background statement
[2] = at room temperature; background statement

SMILES	toxicity [1]	solubility in water [2]
COc1ccc(-c2cc(=O)c3c(O)cc(O[C@@H]4O[C@H](CO[C@@H]5O[C@@H](C)[C@H](O)[C@@H](O)[C@H]5O)[C@@H](O)[C@H](O)[C@H]4O)cc3o2)cc1O [diosmin, 7-ramnoglycoside of 5,7,3'-trihydroxy-4'-methoxyflavone]	devoid of toxicity	
C[C@@H]1O[C@@H](OC[C@H]2O[C@@H](Oc3c(-c4ccc(O)c(O)c4)oc4cc(O)cc(O)c4c3=O)[C@H](O)[C@@H](O)[C@@H]2O)[C@H](O)[C@H](O)[C@H]1O [rutin, 3-rutinoside of 3, 3', 4', 5,7-penthahydroxyflavone]	devoid of toxicity	very poorly soluble
